The source of these data is patent US7601744B2, “Benzothiadiazolylphenylalkylamine derivatives and methods of their use” (Wyeth, priority 2005, dated 2009).

Where a name gives a salt, the structure may show the parent alone.

The target of the test is T1, hNET (Homo sapiens, UniProt P23975).
T1 construct: expressed in transfected cells
The experiment in a line: Norepinephrine (NE) uptake assay in MDCK-Net6 cells. To be noted: [3H]NE uptake. The format is cell-based. The method, then: MDCK-Net6 cells, stably transfected with human hNET (Pacholczyk, T., R. D. Blakely, and S. G. Amara, Nature, 1991, 350(6316): p. 350-4) were cultured in growth medium containing high glucose DMEM (Gibco, Cat. No. 11995), 10% FBS (dialyzed, heat-inactivated, US Bio-Technologies, Lot FBD1129HI) and 500 µg/ml G418 (Gibco, Cat. No. 10131). Cells were plated at 300,000/T75 flask and cells were split twice weekly. The JAR cell line (human placental choriocarcinoma) was purchased from ATCC (Cat. No. HTB-144). The cells were cultured in growth medium containing RPMI 1640 (Gibco, Cat. No. 72400), 10% FBS (Irvine, Cat. No. 3000), 1% sodium pyruvate (Gibco, Cat. No. 1136) and 0.25% glucose. Cells were plated at 250,000 cells/T75 flask and split twice weekly. For all assays, cells were plated in Wallac 96-well sterile plates (PerkinElmer, Cat. No. 3983498)
On day 1, cells were plated at 3,000 cells/well in growth medium and maintained in a cell incubator (37° C., 5% CO2). On day 2, growth medium was replaced with 200 μl of assay buffer (25 mM HEPES; 120 mM NaCl; 5 mM KCl; 2.5 mM CaCl2; 1.2 mM MgSO4; 2 mg/ml glucose (pH 7.4, 37° C.)) containing 0.2 mg/ml ascorbic acid and 10 μM pargyline. […] The plates were counted in a Wallac Microbeta counter (PerkinElmer) to collect the raw cpm data. […]

T1 sequence (P23975 whole entry): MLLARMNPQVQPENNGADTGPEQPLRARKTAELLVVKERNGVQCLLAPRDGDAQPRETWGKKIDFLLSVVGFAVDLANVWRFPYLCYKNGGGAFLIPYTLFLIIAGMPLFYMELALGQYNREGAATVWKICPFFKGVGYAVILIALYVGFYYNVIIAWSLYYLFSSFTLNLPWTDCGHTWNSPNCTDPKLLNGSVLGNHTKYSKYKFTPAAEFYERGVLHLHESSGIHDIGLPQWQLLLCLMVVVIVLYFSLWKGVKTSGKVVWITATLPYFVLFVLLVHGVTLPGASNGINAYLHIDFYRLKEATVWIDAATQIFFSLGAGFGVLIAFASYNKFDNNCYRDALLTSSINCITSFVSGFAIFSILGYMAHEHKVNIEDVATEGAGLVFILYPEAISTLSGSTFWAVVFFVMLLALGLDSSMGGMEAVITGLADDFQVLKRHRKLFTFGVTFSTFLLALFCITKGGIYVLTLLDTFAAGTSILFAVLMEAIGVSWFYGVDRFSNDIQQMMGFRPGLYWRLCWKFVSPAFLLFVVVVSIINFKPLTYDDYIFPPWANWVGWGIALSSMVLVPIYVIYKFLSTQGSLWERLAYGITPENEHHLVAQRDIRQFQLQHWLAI

Regarding `CNCC[C@@H](c1ccccc1)N1c2ccccc2N(C)S1(=O)=O` [Example 5, (3S)-N-methyl-3-(3-methyl-2,2-dioxido-2,1,3-benzothiadiazol-1(3H)-yl)-3-phenylpropan-1-amine hydrochloride], the inhibition at 6 µM was 33%.
